According to patent publication US10597390B2, “Indoles for use in influenza virus infection” (Janssen Sciences Ireland UC, priority 2014, dated 2020):
Counter-ions that a name gives are not always drawn.

Legend:
in vitro = details: dog, TOX MDCK CC50
[1] = system: influenza virus A/Taiwan/1/86 (H1N1); experiment: organism not typed; assay type: cell-based; details: CPE in MDCK cells, three days post-virus exposure, ATPlite

SMILES	CC50 at 3 days (in vitro) [nM]	melting point [°C]	IC50 ([1]; MDCK, 72 h) [nM]	IC50 [1] [nM]
N#Cc1cc(F)c2[nH]cc(-c3ncc(F)c(N[C@H]4C5CCC(CC5)[C@@H]4C(=O)O)n3)c2c1 [Compound 171]	700	211.6	6	
Nc1nccc(C(=O)N[C@@H]2CCC[C@H](Nc3nc(-c4c[nH]c5c(F)cc(F)cc45)ncc3F)C2)n1 [Compound 123]	> 25000	235	11	
Nc1n[nH]c(C(=O)N[C@@H]2CCC[C@H](Nc3nc(-c4c[nH]c5c(F)cc(Cl)cc45)ncc3F)C2)n1 [Compound 54]	10400	293.5	4	
O=C(N[C@@H]1CCC[C@H](Nc2nc(-c3c[nH]c4c(F)cc(F)cc34)ncc2F)C1)c1ncccn1 [Compound 108]	> 24000	> 300	6	
Nc1cc(C(=O)N[C@@H]2CCC[C@H](Nc3nc(-c4c[nH]c5c(F)cc(F)cc45)ncc3F)C2)ncn1 [Compound 124]	11400	228	7	
Cc1cnc(C(=O)N[C@@H]2CCC[C@H](Nc3nc(-c4c[nH]c5c(F)cc(F)cc45)ncc3F)C2)cn1 [Compound 103]	6600	215	49	
O=C(N[C@@H]1CCC[C@H](Nc2nc(-c3c[nH]c4c(F)cc(Cl)cc34)ncc2F)C1)c1ncccn1 [Compound 46]	4800	286.8	5	
Cc1nc(C(=O)N[C@@H]2CCC[C@H](Nc3nc(-c4c[nH]c5c(F)cc(Cl)cc45)ncc3F)C2)no1 [Compound 50]	> 25000	276.7	24	
CC(C)(C)[C@H](CC(=O)O)Nc1nc(-c2c[nH]c3c(F)cc(F)cc23)c(C#N)cc1F [Compound 218]	240	> 280	3	
Nc1cc(C(=O)N[C@@H]2CCC[C@H](Nc3nc(-c4c[nH]c5c(F)cc(Cl)cc45)ncc3F)C2)ncn1 [Compound 66]	5200	152.4	3	
Cc1cccnc1C(=O)N[C@@H]1CCC[C@H](Nc2nc(-c3c[nH]c4c(F)cc(Cl)cc34)ncc2F)C1 [Compound 32]	> 22000	226.5	9	
Cn1nnnc1C(=O)N[C@@H]1CCC[C@H](Nc2nc(-c3c[nH]c4c(F)cc(F)cc34)ncc2F)C1 [Compound 152]	> 5000	250.3	40	
Nc1cccc(C(=O)N[C@@H]2CCC[C@H](Nc3nc(-c4c[nH]c5c(F)cc(Cl)cc45)ncc3F)C2)n1 [Compound 38]	2700	268.4	3	
Cn1cc(Br)nc1C(=O)N[C@@H]1CCC[C@H](Nc2nc(-c3c[nH]c4c(F)cc(Cl)cc34)ncc2F)C1 [Compound 57]	5000	214.9	10	
Cc1cc(F)c2[nH]cc(-c3ncc(F)c(N[C@@H]4CCC[C@@H](NC(=O)c5cncn5C)C4)n3)c2c1 (racemic) [Compound 198]	9700	98	40	
Nc1nc(C(=O)N[C@@H]2CCC[C@H](Nc3nc(-c4c[nH]c5c(F)cc(Cl)cc45)ncc3F)C2)cs1 [Compound 76]	2500	184.8	0.6	
O=C(N[C@@H]1CCC[C@H](Nc2nc(-c3c[nH]c4c(F)cc(Cl)cc34)ncc2F)C1)c1cnn[nH]1 [Compound 42]	3100	280.1	0.5	
O=C(N[C@@H]1CCC[C@H](Nc2nc(-c3c[nH]c4c(F)cc(F)cc34)ncc2F)C1)c1ccc2ncccc2n1 [Compound 100]	12400	84.6	54	
Cn1ncnc1C(=O)N[C@@H]1CCC[C@H](Nc2nc(-c3c[nH]c4c(F)cc(Cl)cc34)ncc2F)C1 [Compound 75]	> 25000	> 300	12	
O=C(N[C@@H]1CCC[C@H](Nc2nc(-c3c[nH]c4c(F)cc(F)cc34)ncc2F)C1)c1cccc(O)n1 [Compound 104]	> 25000	226.6	2	
Cc1cc(F)c2[nH]cc(-c3nc(N[C@@H]4CCC[C@@H](NC(=O)c5ncoc5C)C4)c(F)cc3C#N)c2c1 (racemic) [Compound 192]	> 25000	> 250	11	

SMILES	CC50 at 3 days (in vitro) [nM]	melting point [°C]	IC50 ([1]; MDCK, 72 h) [nM]	IC50 [1] [nM]
Cc1cc(F)c2[nH]cc(-c3ncc(F)c(N[C@@H](CC(=O)O)C(C)(C)C)n3)c2c1 [Compound 169]	2300	144	19	
O=C(N[C@@H]1CCC[C@H](Nc2nc(-c3c[nH]c4c(F)cc(Cl)cc34)ncc2F)C1)c1ncccc1O [Compound 34]	8700	242.2	8	
O=C(N[C@@H]1CCC[C@H](Nc2nc(-c3c[nH]c4c(F)cc(Cl)cc34)ncc2F)C1)c1ncc(F)cc1F [Compound 55]	6600	> 300	25	
O=C(N[C@@H]1CCC[C@H](Nc2nc(-c3c[nH]c4c(F)cc(F)cc34)ncc2F)C1)c1nnn[nH]1		270.2		
Nc1n[nH]c(C(=O)N[C@@H]2CCC[C@H](Nc3nc(-c4c[nH]c5c(F)cc(F)cc45)ncc3F)C2)n1		> 300		
Cc1cc(F)c2[nH]cc(-c3ncc(F)c(N[C@H]4C5CCC(CC5)[C@@H]4C(=O)O)n3)c2c1 (mixture of isomers) (as salt: TFA) [Compound 164]		> 250		
Cc1[nH]nc(C(=O)N[C@@H]2CCC[C@H](Nc3nc(-c4c[nH]c5c(F)cc(F)cc45)ncc3F)C2)c1N [Compound 86]	3100		2	
CC[C@]1(C(=O)O)CCCC[C@@H]1Nc1nc(-c2c[nH]c3c(F)cc(F)cc23)ncc1F (racemic) [Compound 252]	8200		350	
Cc1nc(C(=O)N[C@H]2CCC[C@@H](Nc3nc(-c4c[nH]c5c(F)cc(F)cc45)c(C(F)(F)F)cc3F)C2)c(C)o1 (racemic) [Compound 179]	> 25000		81	
O=C(N[C@@H]1CCC[C@H](Nc2nc(-c3c[nH]c4c(F)cc(F)cc34)ncc2F)C1)c1cn(CCO)cn1 [Compound 88]	11500		7	
O=C(O)c1cccc(C(=O)N[C@@H]2CCC[C@H](Nc3nc(-c4c[nH]c5c(F)cc(F)cc45)ncc3F)C2)n1 [Compound 157]	> 25000		330	
O=C(N[C@@H]1CCC[C@H](Nc2nc(-c3c[nH]c4c(F)cc(C(F)(F)F)cc34)ncc2F)C1)c1ccccn1 (racemic) [Compound 263]	3900		15	
Cn1cnc(C(=O)N[C@@H]2CCC[C@H](Nc3nc(-c4c[nH]c5c(F)cc(Cl)cc45)c(C#N)cc3F)C2)c1 [Compound 185]	10200		4	
O=C(O)[C@@H]1CCCC[C@@H]1Nc1nc(-c2c[nH]c3c(F)cc(F)cc23)ncc1F [Compound 254]	14700		320	
Cn1cnc(C(=O)N[C@H]2CCC[C@@H](Nc3nc(-c4c[nH]c5c(F)cc(Cl)cc45)c(C#N)cc3F)C2)c1 (racemic) [Compound 189]	7300		4	
O=C(N[C@@H]1CCC[C@H](Nc2nc(-c3c[nH]c4c(F)cc(Cl)cc34)ncc2F)C1)c1ccccn1 [Compound 188]	11000			5
Cc1cc(F)c2[nH]cc(-c3ncc(F)c(N[C@H]4C5CCC(CC5)[C@@H]4C(=O)O)n3)c2c1 (racemic) [Compound 164]	1700		11	
CC(C)(C)[C@@H](CO)Nc1nc(-c2c[nH]c3c(F)cc(F)cc23)c(C#N)cc1F [Compound 257, (S)-2-(5,7-difluoro-1H-indol-3-yl)-5-fluoro-6-((1-hydroxy-3,3-dimethyl-butan-2-yl)amino)nicotinonitrile]	7000		130	
N#Cc1cc(F)c(N[C@@H]2CCC[C@H](NC(=O)N3CCCC3)C2)nc1-c1c[nH]c2c(F)cc(F)cc12 [Compound 162]	> 23000			0.5
O=C(N[C@@H]1CCC[C@H](Nc2nc(-c3c[nH]c4c(F)cc(F)cc34)ncc2F)C1)c1ccccn1 (racemic) [Compound 90]	10900		9	
O=C(N[C@H]1CCC[C@@H](Nc2nc(-c3c[nH]c4c(F)cc(F)cc34)c(-c3nnc[nH]3)cc2F)C1)N1CCCC1 (racemic) [Compound 24]	> 25000		420	
